The values below come from patent US20130230543A1, “ENGINEERED POLYPEPTIDE CONJUGATES AND METHODS FOR MAKING THEREOF USING […]” (priority 2010, published 2013).

Read-outs that look alike come from different tables or passages of the source.

Format in all cases: cell-based
One test concerns A431 cells. The test can be described thus: In vitro cytotoxicity assay, CellTiter-Glo, 96 hours after treatment (mAb2 conjugates and free compounds). The note with it: Homo sapiens, A-431, 96 h, read-out: A431 Antibody IC50 (nM). As for the experimental part:
(§1) In vitro cytotoxicity assays were carried out using various antibodies, payloads (i.e., agent moieties), and amine donor units. For mAb2 (a chimeric IgG1 antibody), target expressing (A431, OVCAR3, BxPC3 and HT-29) or non-expressing (SW620) cells were seeded on white walled clear bottom plates at 2000 cells/well for 24 hours before treatment. […] Cell viability was determined by CellTiter-Glo® Luminescent Cell Viability Assay 96 (Promega, Madison Wis.) 96 hours after treatment. […] IC50 was calculated by Prism software.

The next test relates to SW620 cells. The test can be described thus: In vitro cytotoxicity assay, CellTiter-Glo, 96 hours after treatment, target non-expressing cells. Particulars: read-out: SW620 Antibody IC50. As to the method: as §1
For the next test, the system named is BxPC3 cells. Briefly: In vitro cytotoxicity assay, CellTiter-Glo, 96 hours after treatment (mAb2 conjugates and free compounds). The note with it: BxPC3, target expressing, column also holds free compounds, read-out: BxPC3 Antibody IC50. As to the method:
as §1

In the next test the test system is HT-29 cells. The description is as above. The note with it: Homo sapiens, HT-29, target expressing, column also holds free compounds, read-out: HT-29 Antibody IC50. As to the method:
as §1

Regarding `CO[C@H]1/C=C\C=C(/C)C(=O)NC2=CC(=O)C(NCCCCNC(=O)[C@H](CCCCN)NC(C)=O)=C(C[C@@H](C)C[C@H](OC)[C@H](O)[C@@H](C)/C=C(\C)[C@@H]1OC(N)=O)C2=O` [Sample 26, AcLys-Putrescinyl-Geldanamycin], the IC50 is above 1000 nM with A431 cells and above 1000 nM in the test on SW620 cells (Homo sapiens, SW-620, values only for free compounds).
Take VC-PABC-MMAF [Sample 24]: the IC50 worked out at 427 nM in the test with BxPC3 cells and 483 nM in the test with SW620 cells (values only for free compounds).
`CC[C@H](C)[C@@H](C(CC(=O)N1CCCC1C(OC)[C@@H](C)C(=O)NC(Cc1ccccc1)c1nccs1)OC)N(C)C(=O)C(NC(=O)[C@H](C(C)C)N(C)C(=O)CNC(=O)C(C)CCCCN)C(C)C` (stereo partly drawn) [Sample 29, AcLysGly-MMAD]: the IC50 was 8.42 nM in the test with A431 cells and 5.14 nM with HT-29 cells.
